Data from US20250333397A1 (REMIX THERAPEUTICS INC., priority 2021, published 2025).
Read-outs that look alike come from different tables or passages of the source.

Tests used:
Format in all cases: cell-based, human
Target C mRNA = assay: RT-qPCR splicing assay panel, Target C canonical junction (CJ) mRNA; conditions: Homo sapiens, canonical junction (CJ) mRNA, RT-qPCR panel, Table 4A; read-out: Target C, decrease in CJ mRNA levels, IC50
Method in brief: (§1)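 CJ and AJ junction levels were quantified by RT-qPCR on lysates, with housekeeper ΔCt normalized to DMSO (ΔΔCt) and expressed as RQ = 2^(-ΔΔCt). Before lysis, K562 or A673 cells had 24 h compound exposure at 37 °C. Dosing was 11 points, 3-fold, from 10 uM final, with DMSO at most 0.25%.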

MYB mRNA = assay: RT-qPCR splicing assay, MYB canonical (CJ) and alternative (AJ) junction mRNA; conditions: Homo sapiens; for AC50: read-out: MYB AJ (AC50, increase in AJ mRNA)
Method in brief: as §1

SMN2 mRNA = assay: RT-qPCR splicing assay panel, SMN2 canonical junction (CJ) mRNA; conditions: Homo sapiens, canonical junction (CJ) mRNA, RT-qPCR panel, Table 4A; read-out: SMN2, decrease in CJ mRNA levels, IC50
Method in brief: as §1

HTT mRNA = assay: RT-qPCR splicing assay, HTT canonical (CJ) and alternative (AJ) junction mRNA; conditions: Homo sapiens; for AC50: read-out: HTT AJ (AC50, increase in AJ mRNA)
Method in brief: as §1

[1] = 24 h, Table 3A, A673 or K562 cells, 24 h treatment
[2] = 24 h, Table 3A, A673 or K562 cells, 24 h treatment, read-out: MYB CJ (IC50, decrease in CJ mRNA)
[3] = canonical junction (CJ) mRNA, RT-qPCR panel, Table 4A, read-out: MYB, decrease in CJ mRNA levels, IC50
[4] = 24 h, Table 3A, A673 or K562 cells, 24 h treatment, read-out: HTT CJ (IC50, decrease in CJ mRNA)
[5] = canonical junction (CJ) mRNA, RT-qPCR panel, Table 4A, read-out: HTT, decrease in CJ mRNA levels, IC50

Row | SMILES | IC50 (Target C mRNA) [nM] | IC50 (MYB mRNA; [2]) [nM] | IC50 (MYB mRNA; [3]) [nM] | IC50 (SMN2 mRNA) [nM] | IC50 (HTT mRNA; [4]) [nM] | IC50 (HTT mRNA; [5]) [nM] | AC50 (MYB mRNA; [1]) [nM] | AC50 (HTT mRNA; [1]) [nM]
1 | COc1cc(-c2ccc(-c3ccc(N4CCC(NC5CC(F)(F)C5)C4)nn3)c(O)c2)cnn1 (stereo not drawn) [Compound 334, 2-(6-(3-((3,3-difluorocyclobutyl)amino)pyrrolidin-1-yl)pyridazin-3-yl)-5-(6-methoxypyridazin-4-yl)phenol] | 100 to 1000 | 100 to 1000 | 100 to 1000 | 100 to 1000 | < 100 | < 100 | 1000 to 10000 | 100 to 1000
2 | COc1cc(-c2ccc(-c3ccc(N4CC[C@@H](N(C)C(C)(C)C)C4)nn3)c(O)c2)cnn1 [Compound 336, 2-{6-[(3R)-3-[tert-butyl(methyl)amino]pyrrolidin-1-yl]pyridazin-3-yl}-5-(6-methoxypyridazin-4-yl)phenol] | < 100 | < 100 | < 100 | < 100 | < 100 | < 100 | < 100 | < 100
3 | Cc1ncc(-c2cc(O)c(-c3ccc(N4CC[C@@H](NC(C)(C)C)C4)nn3)cc2F)s1 [Compound 338, 2-{6-[(3R)-3-(tert-butylamino)pyrrolidin-1-yl]pyridazin-3-yl}-4-fluoro-5-(2-methyl-1,3-thiazol-5-yl) phenol] | < 100 | < 100 | < 100 | < 100 | < 100 | < 100 | < 100 | < 100
4 | COc1cc(-c2ccc(-c3cc(C#N)c(N4CC[C@H](NC5CCC5)C4)nn3)c(O)c2)cnn1 [Compound 343, 3-[(3S)-3-(cyclobutylamino)pyrrolidin-1-yl]-6-[2-hydroxy-4-(6-methoxypyridazin-4-yl)phenyl]pyridazine-4-carbonitrile] | 1000 to 10000 | > 10000 | > 10000 | 100 to 1000 | 100 to 1000 | 100 to 1000 | > 10000 | 1000 to 10000
5 | Cc1ncc(-c2ccc(-c3ccc(N4CCC(NC5CCC5)C4)nn3)cc2F)s1 (stereo not drawn) [Compound 344] | 1000 to 10000 | 1000 to 10000 | 1000 to 10000 | 100 to 1000 | 1000 to 10000 | 1000 to 10000 | 1000 to 10000 | 1000 to 10000
6 | Cc1ncc(-c2ccc(-c3ccc(N4CCC(NC5CCC5)C4)nn3)c(O)c2)o1 (stereo not drawn) [Compound 347, 2-{6-[3-(cyclobutylamino)pyrrolidin-1-yl]pyridazin-3-yl}-5-(2-methyl-1,3-oxazol-5-yl)phenol] | 100 to 1000 | 100 to 1000 | 100 to 1000 | < 100 | 100 to 1000 | 100 to 1000 | 100 to 1000 | 100 to 1000
7 | Cc1ncc(-c2ccc(-c3ccc(N4CCC(NC5CCC5)C4)nn3)nc2F)s1 (stereo not drawn) [Compound 349] | 1000 to 10000 | 100 to 1000 | 100 to 1000 | 100 to 1000 | 100 to 1000 | 100 to 1000 | 100 to 1000 | 100 to 1000
8 | Cc1ncc(-c2cc(O)c(-c3ccc(N4CCC(NC5CCOC5)C4)nn3)cc2F)s1 (stereo not drawn) [Compound 350, 4-fluoro-5-(2-methyl-1,3-thiazol-5-yl)-2-{6-[3-(oxolan-3-ylamino)pyrrolidin-1-yl]pyridazin-3-yl}phenol] | < 100 | < 100 | < 100 | < 100 | < 100 | < 100 | 100 to 1000 | < 100
9 | COc1cc(-c2ccc(-c3ccc(N4CCC(CNC(C)(C)C)C4)nn3)c(O)c2)cnn1 (stereo not drawn) [Compound 351, 2-(6-{3-[(tert-butylamino)methyl]pyrrolidin-1-yl}pyridazin-3-yl)-5-(6-methoxypyridazin-4-yl)phenol] | 100 to 1000 | 100 to 1000 | 100 to 1000 | 100 to 1000 | < 100 | < 100 | 1000 to 10000 | 100 to 1000
10 | COc1cc(-c2ccc(-c3ccc(N4CCC(NC5CC6(CCC6)C5)C4)nn3)c(O)c2)cnn1 (stereo not drawn) [Compound 353, 5-(6-methoxypyridazin-4-yl)-2-[6-(3-{spiro[3.3]heptan-2-ylamino}pyrrolidin-1-yl)pyridazin-3-yl]phenol] | 100 to 1000 | 1000 to 10000 | 1000 to 10000 | < 100 | 100 to 1000 | 100 to 1000 | 1000 to 10000 | 100 to 1000
11 | Cc1ncc(-c2ccc(-c3ccc(N4CC[C@@](C)(NC5CCC5)C4)nn3)c(O)c2)s1 [Compound 356] | 100 to 1000 | 100 to 1000 | 100 to 1000 | < 100 | < 100 | < 100 | 100 to 1000 | < 100
12 | Cc1ncc(-c2ccc(-c3ccc(N4CC[C@](C)(NC5CCC5)C4)nn3)c(O)c2)s1 [Compound 357] | < 100 | 100 to 1000 | 100 to 1000 | < 100 | < 100 | < 100 | 100 to 1000 | < 100

Continued, in another order:

Row | IC50 (Target C mRNA) [nM] | IC50 (MYB mRNA; [2]) [nM] | IC50 (MYB mRNA; [3]) [nM] | IC50 (SMN2 mRNA) [nM] | IC50 (HTT mRNA; [4]) [nM] | IC50 (HTT mRNA; [5]) [nM] | SMILES | AC50 (MYB mRNA; [1]) [nM] | AC50 (HTT mRNA; [1]) [nM]
13 | 100 to 1000 | 100 to 1000 | 100 to 1000 | 100 to 1000 | < 100 | < 100 | COc1cc(-c2ccc(-c3ccc(N4CCC(NC56CC(C5)C6)C4)nn3)c(O)c2)cnn1 (stereo not drawn) [Compound 335, 2-[6-(3-{bicyclo[1.1.1]pentan-1-ylamino}pyrrolidin-1-yl)pyridazin-3-yl]-5-(6-methoxypyridazin-4-yl)phenol] | 1000 to 10000 | 100 to 1000
14 | < 100 | < 100 | < 100 | < 100 | < 100 | < 100 | COc1cc(-c2ccc(-c3ccc(N4CC[C@H](N(C)C(C)(C)C)C4)nn3)c(O)c2)cnn1 [Compound 337, 2-{6-[(3S)-3-[tert-butyl(methyl)amino]pyrrolidin-1-yl]pyridazin-3-yl}-5-(6-methoxypyridazin-4-yl)phenol] | < 100 | < 100
15 | < 100 | < 100 | < 100 | < 100 | < 100 | < 100 | Cc1ncc(-c2cc(O)c(-c3ccc(N4CC[C@@H](N(C)C(C)(C)C)C4)nn3)cc2F)s1 [Compound 339, 2-{6-[(3R)-3-[tert-butyl(methyl)amino]pyrrolidin-1-yl]pyridazin-3-yl}-4-fluoro-5-(2-methyl-1,3-thiazol-5-yl)phenol] | < 100 | < 100
16 | < 100 | > 10000 | > 10000 | < 100 | < 100 | < 100 | Cc1ncc(-c2cc(O)c(-c3ccc(N4CCC(CNC5CCC5)C4)nn3)cc2F)s1 (stereo not drawn) [Compound 342, 2-(6-{3-[(cyclobutylamino)methyl]pyrrolidin-1-yl}pyridazin-3-yl)-4-fluoro-5-(2-methyl-1,3-thiazol-5-yl)phenol] | 1000 to 10000 | < 100
17 | > 10000 | 1000 to 10000 | 1000 to 10000 | 100 to 1000 | 1000 to 10000 | 1000 to 10000 | Oc1cc(-n2cnnc2)ccc1-c1ccc(N2CCC(NC3CCC3)C2)nn1 (stereo not drawn) [Compound 345] | 1000 to 10000 | 1000 to 10000
18 | 100 to 1000 | 100 to 1000 | 100 to 1000 | < 100 | < 100 | < 100 | COc1cc(-c2ccc(-c3ccc(N4CCC(CNC5CCC5)C4)nn3)c(O)c2)cnn1 (stereo not drawn) [Compound 348, 2-(6-{3-[(cyclobutylamino)methyl]pyrrolidin-1-yl}pyridazin-3-yl)-5-(6-methoxypyridazin-4-yl)phenol] | 1000 to 10000 | 100 to 1000
19 | 100 to 1000 | 100 to 1000 | 100 to 1000 | 100 to 1000 | 100 to 1000 | 100 to 1000 | COc1cc(-c2ccc(-c3ccc(N4CCC(NC5CC(C)(C)C5)C4)nn3)c(O)c2)cnn1 (stereo not drawn) [Compound 352, 2-(6-{3-[(3,3-dimethylcyclobutyl)amino]pyrrolidin-1-yl}pyridazin-3-yl)-5-(6-methoxypyridazin-4-yl)phenol] | 1000 to 10000 | 100 to 1000
20 | < 100 | 100 to 1000 | 100 to 1000 | < 100 | < 100 | < 100 | Cc1ncc(-c2cc(O)c(-c3ccc(N4CCC(NC5CCOCC5)C4)nn3)cc2F)s1 (stereo not drawn) [Compound 354, 4-fluoro-5-(2-methyl-1,3-thiazol-5-yl)-2-{6-[3-(oxan-4-ylamino)pyrrolidin-1-yl]pyridazin-3-yl}phenol] | < 100 | < 100
21 | < 100 | 100 to 1000 | 100 to 1000 | < 100 | < 100 | < 100 | COc1nc(-c2ccc(N3CCC(NC(C)(C)C)C3)nn2)ccc1-c1cnc(C)s1 (stereo not drawn) [Compound 355] | 100 to 1000 | < 100
